Laboratory results taken from patent US7637980B2, “Method of increasing photosynthesis in plants comprising an exposure thereof to lipochitooligosaccharides and compositions therefor” (McGill University, priority 1999, dated 2009).

Tests used:
Assay type in all cases: in vivo
[1] = tested on: soybean (cv Bayfield); test: Photosynthesis of soybean after LCO foliar spray, greenhouse
Experimental: Soybean (cv Bayfield) seeds were surface sterilized with 2% sodium hypochlorite for 3-4 minutes, washed with several changes of sterile distilled water and germinated in plastic trays containing sterile vermiculite. Seedlings at the two-leaf stage, about seven days of planting, were transplanted into 15 cm plastic pots containing promix (Premier Brands Inc., New Rochelle, N.Y., USA). Pots were placed in a greenhouse maintained at 25±2° C. with a day/night cycle of 16/8 h. Plants were watered as required.
(§1) Concentrations of LCO (10^−6 M-10^−12 M) were made with distilled water containing 0.02% Tween 20. A control treatment, containing 0.02% Tween 20, but no LCO was also applied. Since the rates of growth and development differed among the plant species used in the experiments, spray treatment was conducted at different times after planting In general, the spray was applied when the plants were big enough to allow easy measurements of leaf photosynthetic rates. The following are the ages of the plants when the sprays were conducted: soybean 21 days after planting (DAP), corn 25 DAP, rice 45 DAP, melon (35 DAP) and canola 30 DAP. The plants were sprayed with LCO solutions until dripping. The sprays were applied with an atomizer (Nalgene, USA). Each plant required 2-3 mL of spray solution. Each treatment was replicated at least five times and organized on the green house bench in a randomized complete block design. Each experiment (with each crop species) was repeated at least twice.
(§2) Photosynthesis was recorded every 24 h using a Li-Cor 6400 portable photosynthesis system (Li-Cor Inc., Lincoln, Neb., USA) for 6 days. In the case of soybean the photosynthesis in the second nodal leaf from the top was recorded while in the other species used in the photosynthetic rate was measured for the top-most fully expanded leaf. Soybean plants were harvested after seven days of LCO treatment and dried at 80° C. for 48 h. Data were analyzed with the Statistical Analysis System (SAS Inc., N.C., USA). Percent increase in photosynthesis over the control was calculated.

[2] = tested on: corn (Zea mays cv Pioneer 3921); test: Photosynthesis of corn after LCO spray, greenhouse
Experimental: (§3) Seeds of rice (Oryza sativa cv Cypress), canola (Brassica napus cv Springfield), corn (Zea mays cv Pioneer 3921) and melon (Cucumis melo cv Nova) were surface sterilized with 2% sodium hypochlorite for 3-4 min, washed with several changes of sterile distilled water and planted in plastic pots (15 cm dia) containing promix (Premier Brands Inc., New Rochelle, N.Y., USA).
as §1, §2

[3] = tested on: rice (Oryza sativa cv Cypress); test: Photosynthesis of rice after LCO spray, greenhouse
Experimental: as §3, §1, §2

[4] = tested on: soybean (cv OAC Bayfield); test: Photosynthesis of soybean under field conditions (1999)
Experimental: (§4) The soybean experiment was conducted at the Lods Agronomy Research Centre, McGill University, Macdonald Campus, Ste-Anne-de-Bellevue, Quebec, Canada during the period June to September, 1999. A randomized complete block design with three blocks was followed. The plot size was 2×4 m with a row to row spacing of 25 cm and 10 cm between plants within a row. Seeds of soybean (cv OAC Bayfield), treated with commercial Bradyrhizobium japonicum inoculant (Bios Agriculture Inc., Quebec, Canada) at the rate of 3 g per kilogram of seed, were hand planted.
(§5) At 25 days after planting twenty plants in each plot were randomly marked and sprayed until dripping with LCO solutions (10^−6, 10^−8 and 10^−10M) containing 0.02% Tween 20 with a hand sprayer. The plants on either side, within the row, of the marked plants were also sprayed. A second spray was carried out at flowering stage and a third spray at pod filling.
(§6) As with the indoor experiments, photosynthetic readings were taken every day for five days after the application of LCO. For soybean additional developmental and agronomic data were collected. The first harvest was conducted at 25 days after the first spray treatment. Five plants were harvested from each plot and the following growth variables were analyzed: plant height, number of branches, number of leaves, leaf area, number of flower clusters, number of pods, number of nodules, dry weights of leaves, stem and roots. The final harvest was conducted after physiological maturity of the plants (Fehr et al., 1971); at this time the remaining fifteen treated plants from each plot were harvested and data on number of branches, number of pods, number of seeds and grain yield per plant was collected.

[5] = tested on: soybean (cv OAC Bayfield); test: Growth and yield of soybean under field conditions (1999)
Experimental: as §4, §5, §6

Substance: Nod Bj V (C18:1, MeFeu)
- photosynthesis ([1]; 10^−6 M, day 1 after treatment): 14.9 μmol m^−2 sec^−1
- photosynthesis ([1]; 10^−6 M, day 2 after treatment): 12.1 μmol m^−2 sec^−1
- photosynthesis ([1]; 10^−6 M, day 4 after treatment): 16.2 μmol m^−2 sec^−1
- photosynthesis ([1]; 10^−6 M, day 5 after treatment): 16.7 μmol m^−2 sec^−1
- photosynthesis ([1]; 10^−6 M, day 6 after treatment): 13.1 μmol m^−2 sec^−1
- photosynthesis ([1]; 10^−7 M, day 1 after treatment): 12.1 μmol m^−2 sec^−1
- photosynthesis ([1]; 10^−7 M, day 2 after treatment): 9.1 μmol m^−2 sec^−1
- photosynthesis ([1]; 10^−7 M, day 4 after treatment): 12.9 μmol m^−2 sec^−1
- photosynthesis ([1]; 10^−7 M, day 5 after treatment): 14.1 μmol m^−2 sec^−1
- photosynthesis ([1]; 10^−7 M, day 6 after treatment): 11.1 μmol m^−2 sec^−1
- photosynthesis ([1]; 10^−8 M, day 1 after treatment): 13.8 μmol m^−2 sec^−1
- photosynthesis ([1]; 10^−8 M, day 2 after treatment): 8.1 μmol m^−2 sec^−1
- photosynthesis ([1]; 10^−8 M, day 4 after treatment): 12.3 μmol m^−2 sec^−1
- photosynthesis ([1]; 10^−8 M, day 5 after treatment): 16.4 μmol m^−2 sec^−1
- photosynthesis ([1]; 10^−8 M, day 6 after treatment): 10.3 μmol m^−2 sec^−1
- photosynthesis ([1]; 10^−9 M, day 1 after treatment): 15.8 μmol m^−2 sec^−1
- photosynthesis ([1]; 10^−9 M, day 2 after treatment): 8.4 μmol m^−2 sec^−1
- photosynthesis ([1]; 10^−9 M, day 4 after treatment): 15.7 μmol m^−2 sec^−1
- photosynthesis ([1]; 10^−9 M, day 5 after treatment): 17.5 μmol m^−2 sec^−1
- photosynthesis ([1]; 10^−9 M, day 6 after treatment): 11.2 μmol m^−2 sec^−1
- photosynthesis ([1]; 10^−10 M, day 1 after treatment): 13.6 μmol m^−2 sec^−1
- photosynthesis ([1]; 10^−10 M, day 2 after treatment): 8.7 μmol m^−2 sec^−1
- photosynthesis ([1]; 10^−10 M, day 4 after treatment): 14.6 μmol m^−2 sec^−1
- photosynthesis ([1]; 10^−10 M, day 5 after treatment): 16.9 μmol m^−2 sec^−1
- photosynthesis ([1]; 10^−10 M, day 6 after treatment): 11.2 μmol m^−2 sec^−1
- photosynthesis ([1]; 10^−11 M, day 1 after treatment): 14.0 μmol m^−2 sec^−1
- photosynthesis ([1]; 10^−11 M, day 2 after treatment): 8.7 μmol m^−2 sec^−1
- photosynthesis ([1]; 10^−11 M, day 4 after treatment): 17.4 μmol m^−2 sec^−1
- photosynthesis ([1]; 10^−11 M, day 5 after treatment): 17.9 μmol m^−2 sec^−1
- photosynthesis ([1]; 10^−11 M, day 6 after treatment): 12.5 μmol m^−2 sec^−1
- photosynthesis ([1]; 10^−12 M, day 1 after treatment): 15.0 μmol m^−2 sec^−1
- photosynthesis ([1]; 10^−12 M, day 2 after treatment): 10.3 μmol m^−2 sec^−1
- photosynthesis ([1]; 10^−12 M, day 4 after treatment): 16.9 μmol m^−2 sec^−1
- photosynthesis ([1]; 10^−12 M, day 5 after treatment): 17.0 μmol m^−2 sec^−1
- photosynthesis ([1]; 10^−12 M, day 6 after treatment): 12.0 μmol m^−2 sec^−1
- increase in photosynthetic rate ([1]; LCO spray, greenhouse, on an average): 50%
- leaf internal CO2 concentration [2]: decreased
- stomatal aperture [2]: did not significantly alter
- increase in photosynthesis ([2]; in general): 10-20%
- intercellular CO2 concentration [3]: unaffected
- stomatal conductance [3]: increases
- transpiration [3]: increases
- increase in photosynthesis ([3]; in general): 10-20%
- stomatal conductance [4]: increases
- transpiration [4]: increased
- photosynthetic rate ([4]; 10^−6 M, day three): 24 µmol m^−2 s^−1
- Leaf area/Plant ([5]; LCO 10^−6 M, field): 2306.3 cm^2
- No. Branches/Plant ([5]; LCO 10^−6 M, field): 4.2
- No. Leaves/Plant ([5]; LCO 10^−6 M, field): 29.4
- No. Nodules/Plant ([5]; LCO 10^−6 M, field): 63.5
- No. Pod clusters/Plant ([5]; LCO 10^−6 M, field): 24.3
- No. Pods/Plant ([5]; LCO 10^−6 M, field): 42.9
- No. seeds/Plant ([5]; LCO 10^−6 M, field): 104.7
- Plant height ([5]; LCO 10^−6 M, field): 78.5 cm
- Root Dry weight/plant ([5]; LCO 10^−6 M, field): 3.0 gm
- Seed yield/plant ([5]; LCO 10^−6 M, field): 22.1 gm
- Shoot dry weight/Plant ([5]; LCO 10^−6 M, field): 24.7 gm
- Leaf area/Plant ([5]; LCO 10^−8 M, field): 2120.4 cm^2
- No. Branches/Plant ([5]; LCO 10^−8 M, field): 5.1
- No. Leaves/Plant ([5]; LCO 10^−8 M, field): 25.4
- No. Nodules/Plant ([5]; LCO 10^−8 M, field): 84.6
- No. Pod clusters/Plant ([5]; LCO 10^−8 M, field): 24.8
- No. Pods/Plant ([5]; LCO 10^−8 M, field): 42.4
- No. seeds/Plant ([5]; LCO 10^−8 M, field): 106.3
- Plant height ([5]; LCO 10^−8 M, field): 85.8 cm
- Root Dry weight/plant ([5]; LCO 10^−8 M, field): 2.3 gm
- Seed yield/plant ([5]; LCO 10^−8 M, field): 21 gm
- Shoot dry weight/Plant ([5]; LCO 10^−8 M, field): 23.7 gm
- Leaf area/Plant ([5]; LCO 10^−10 M, field): 1513.1 cm^2
- No. Branches/Plant ([5]; LCO 10^−10 M, field): 3.4
- No. Leaves/Plant ([5]; LCO 10^−10 M, field): 22.2
- No. Nodules/Plant ([5]; LCO 10^−10 M, field): 68.3
- No. Pod clusters/Plant ([5]; LCO 10^−10 M, field): 28.3
- No. Pods/Plant ([5]; LCO 10^−10 M, field): 48.0
- No. seeds/Plant ([5]; LCO 10^−10 M, field): 118.1
- Plant height ([5]; LCO 10^−10 M, field): 83.5 cm
- Root Dry weight/plant ([5]; LCO 10^−10 M, field): 2.3 gm
- Seed yield/plant ([5]; LCO 10^−10 M, field): 22.6 gm
- Shoot dry weight/Plant ([5]; LCO 10^−10 M, field): 19.8 gm
- Plant height ([5]; field 1999, LCO treatment vs control): not affected
- grain yield enhanced by ([5]; field, spray at seedling, flowering and podfilling stages): 33-44%
